One may read the IC50 as the point on the concentration scale where inhibition reaches its midpoint.

In assay [1] the target is T1, Dihydroorotate dehydrogenase (Plasmodium falciparum, UniProt Q54A96).
T1 sequence (Q54A96 whole entry): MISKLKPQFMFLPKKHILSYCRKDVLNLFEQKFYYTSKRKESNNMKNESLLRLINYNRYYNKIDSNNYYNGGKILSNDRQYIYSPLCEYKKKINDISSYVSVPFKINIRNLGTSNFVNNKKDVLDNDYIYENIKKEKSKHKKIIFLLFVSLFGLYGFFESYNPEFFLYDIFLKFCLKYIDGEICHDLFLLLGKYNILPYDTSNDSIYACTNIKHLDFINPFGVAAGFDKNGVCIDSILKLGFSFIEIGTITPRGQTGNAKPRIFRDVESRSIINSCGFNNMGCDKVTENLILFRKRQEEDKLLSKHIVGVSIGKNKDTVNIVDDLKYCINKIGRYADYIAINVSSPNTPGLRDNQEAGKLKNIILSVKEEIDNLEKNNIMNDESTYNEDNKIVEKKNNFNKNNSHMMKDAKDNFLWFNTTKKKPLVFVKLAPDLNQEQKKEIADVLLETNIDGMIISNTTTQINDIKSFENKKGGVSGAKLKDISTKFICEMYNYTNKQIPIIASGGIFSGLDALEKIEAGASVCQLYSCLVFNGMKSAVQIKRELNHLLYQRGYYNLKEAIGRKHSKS
Nature of the assay: Binding affinity to Plasmodium falciparum DHODH. The following applies: for Ki: read-out: Ki app.

Assay [2] has as its target Dihydroorotate dehydrogenase (quinone), mitochondrial (Homo sapiens, UniProt Q02127). Briefly: Binding affinity to human DHODH.

Dihydroorotate dehydrogenase (quinone), mitochondrial, sequence (Q02127 whole entry): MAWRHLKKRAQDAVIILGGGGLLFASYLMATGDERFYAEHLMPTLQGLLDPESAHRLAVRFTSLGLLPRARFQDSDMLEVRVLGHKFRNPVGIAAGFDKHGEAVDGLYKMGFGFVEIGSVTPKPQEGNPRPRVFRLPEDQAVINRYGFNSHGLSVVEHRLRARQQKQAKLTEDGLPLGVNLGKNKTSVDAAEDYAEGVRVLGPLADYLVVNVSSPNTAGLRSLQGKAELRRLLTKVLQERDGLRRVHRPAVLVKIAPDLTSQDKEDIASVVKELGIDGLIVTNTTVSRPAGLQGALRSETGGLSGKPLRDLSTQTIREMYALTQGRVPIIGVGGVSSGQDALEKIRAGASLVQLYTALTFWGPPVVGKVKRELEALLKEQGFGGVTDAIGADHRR

In the case of `O=C(Nc1ccccc1C(=O)O)c1ccc2ccccc2c1`, the IC50 in assay [1] is over 200 µM. In assay [2], this compound returned an IC50 of 13.8 µM and a Ki of 1.8 µM.

With `CN(C(=O)c1ccc2cc(Br)ccc2c1)c1ccccc1C(=O)O`, in assay [1], the IC50 amounted to 93.4 µM and the Ki was found to be 10.8 µM. Besides, in assay [2], the IC50 was over 200 µM.

On to `CN(C(=O)c1ccc(-c2ccccc2)cc1)c1ccccc1C(=O)O`, for which, in assay [1], the IC50 came to 42.6 µM and the Ki was determined as 4.9 µM. Besides, in assay [2], the IC50 was over 200 µM.

For `CN(C(=O)c1ccc2ccccc2c1)c1ccccc1C(=O)O`, the IC50 in assay [1] and in assay [2] was over 200 µM in each case.

On to `O=C(Nc1ccccc1C(=O)O)c1ccc2cc(Br)ccc2c1`, for which, in assay [1], the IC50 was found to be 143 µM and the Ki came to 16.4 µM. In assay [2], this compound yielded an IC50 of 8.4 µM and a Ki of 1.1 µM.

As to `O=C(Nc1ccccc1C(=O)O)c1ccc(-c2ccccc2)cc1`, in assay [1], the IC50 worked out at 154 µM and the Ki is 17.7 µM. In addition, in assay [2], the IC50 was determined as 5 µM and the Ki is 0.7 µM.

Source of the values: ChEMBL document CHEMBL1148537, “The first de novo designed inhibitors of Plasmodium falciparum dihydroorotate dehydrogenase” (Bioorg Med Chem Lett, 2006).
